Assays:
[1] = Inhibition of IL-6/JAK/STAT3 signalling pathway in HEK-Blue IL-6 cells incubated for 16 hrs by QUANTI-blue assay; assay type: cell-based; conditions: Homo sapiens, HEK-Blue IL-6, 16 h
[2] = test system: HEK-Blue IL-6; experiment: Inhibition of IL-6/JAK/STAT3 signalling pathway in HEK-Blue IL-6 cells at 10 uM incubated for 16 hrs by QUANTI-blue assay relative to control; assay type: cell-based; conditions: Homo sapiens
[3] = test system: MDA-MB-231; experiment: Antiproliferative activity against human MDA-MB-231 cells assessed as inhibition of cell growth measured after 96 hrs by MTT assay; assay type: functional, cell-based; conditions: MDA-MB-231, 96 h
[4] = test system: DU-145; experiment: Antiproliferative activity against human DU-145 cells assessed as inhibition of cell growth measured after 96 hrs by MTT assay; assay type: functional, cell-based; conditions: DU-145, 96 h
[5] = test system: MDA-MB-231; experiment: Antiproliferative activity against human MDA-MB-231 cells assessed as inhibition of cell growth at 10 uM measured after 96 hrs by MTT assay relative to control; assay type: functional
[6] = test system: DU-145; experiment: Antiproliferative activity against human DU-145 cells assessed as inhibition of cell growth at 10 uM measured after 96 hrs by MTT assay relative to control; assay type: functional

| IC50 [1] [µM] | IC50 [3] [µM] | IC50 [4] [µM] | Structure (SMILES) | inhibition [2] [%] | inhibition at 10 µM [5] [%] | inhibition at 10 µM [6] [%] |
| --- | --- | --- | --- | --- | --- | --- |
| 1.32 | 3.34 | 4.68 | CCCn1c(-c2ccc(F)cc2)nc2cc(Nc3nnc(-c4ccccc4)s3)c(N3CCN(C)CC3)cc21 | 105 | 93.4 | 80.7 |
| > 10 | – | – | Fc1ccc(-c2nc3cc(Nc4nnc(-c5ccc(Cl)c(C(F)(F)F)c5)s4)c(F)cc3n2C2CC2)cc1 | 34.2 | – | – |
| 0.41 | > 10 | > 10 | Fc1cccc(-c2nc3cc(Nc4nnc(-c5cccc(C(F)(F)F)c5)s4)c(F)cc3n2C2CC2)c1 | 90 | 5.54 | -7.06 |
| > 10 | – | – | Fc1cc2c(cc1Nc1nnc(-c3cccc(C(F)(F)F)c3)s1)nc(-c1ccccc1)n2C1CC1 | 25.6 | – | – |
| > 10 | – | – | CCCn1c(-c2cccc(F)c2)nc2cc(Nc3nnc(-c4cccc(C(F)(F)F)c4)s3)c(F)cc21 | 20.2 | – | – |
| 0.6 | > 10 | > 10 | Fc1ccc(-c2nc3cc(Nc4nnc(-c5ccccc5C(F)(F)F)s4)c(F)cc3n2C2CC2)cc1 | 99.9 | 3.62 | 14.7 |
| 1.53 | > 10 | > 10 | Fc1cc2c(cc1Nc1nnc(-c3cccc(C(F)(F)F)c3)s1)nc(-c1cccc(C(F)(F)F)c1)n2C1CC1 | 72.8 | 4.54 | -0.72 |
| > 10 | – | – | Fc1ccc(-c2nc3cc(Nc4nnc(-c5ccc(C(F)(F)F)cc5)s4)c(N4CCOCC4)cc3n2C2CC2)cc1 | 0.29 | – | – |
| > 10 | – | – | Fc1ccc(-c2nc3cc(Nc4nnc(-c5ccc(C(F)(F)F)cc5)s4)ccc3n2C2CC2)cc1 | 8.71 | – | – |
| 3.92 | – | – | Fc1cc2c(cc1Nc1nnc(-c3ccccc3F)s1)nc(-c1ccccc1F)n2C1CC1 | 63.6 | – | – |
| 3.37 | > 10 | > 10 | Fc1ccc(-c2nc3cc(Nc4nnc(-c5cccc(Cl)c5)s4)c(F)cc3n2C2CC2)cc1 | 67.8 | -2.05 | -7.76 |
| 1.09 | > 10 | > 10 | COc1cc(-c2nnc(Nc3cc4nc(-c5ccc(F)cc5)n(C5CC5)c4cc3F)s2)cc(OC)c1OC | 83.5 | -11.5 | -10.3 |
| 3.96 | > 80 | > 10 | CCCCCn1c(-c2ccc(F)cc2)nc2cc(Nc3nnc(-c4ccccc4)s3)c(N3CCN(C)CC3)cc21 | 83.2 | -7.99 | -8.3 |
| 6.42 | – | – | COCCn1c(-c2ccc(F)cc2)nc2cc(Nc3nnc(-c4ccccc4)s3)c(N3CCN(C)CC3)cc21 | 65.4 | – | – |
| > 10 | 6.63 | 9.73 | CCCn1c(-c2ccc(F)cc2)nc2cc(Nc3nnc(-c4cccc(C(F)(F)F)c4)s3)c(N3CCN(C)CC3)cc21 | 5.21 | 90.1 | 55.6 |
| 3.12 | > 10 | > 10 | CC(C)n1c(-c2ccc(F)cc2)nc2cc(Nc3nnc(-c4ccccc4)s3)c(N3CCN(C)CC3)cc21 | 71.4 | 0.1 | -4.96 |
| > 10 | – | – | Fc1ccc(-c2nc3cc(Nc4nnc(-c5cccc(C(F)(F)F)c5)s4)ccc3n2C2CC2)cc1 | 34.5 | – | – |
| 1.96 | 3.33 | 4.34 | CCCn1c(-c2ccc(F)cc2)nc2cc(Nc3nnc(-c4cccc(F)c4)s3)c(N3CCN(C)CC3)cc21 | 85.3 | 94.7 | 78.9 |
| 2.21 | 1.66 | 1.84 | O=[N+]([O-])c1ccc2c(c1)S(=O)(=O)C=C2 | 107 | 92.2 | 79.6 |
| 0.52 | > 10 | > 10 | CCOc1cc2c(cc1Nc1nnc(-c3cccc(C#N)c3)s1)nc(-c1ccc(F)cc1)n2C1CC1 | 92.5 | -5.91 | 14 |
| > 10 | – | – | CN1CCN(c2cc3c(cc2Nc2nnc(-c4ccccc4)s2)nc(-c2cccnc2)n3C2CC2)CC1 | 25.5 | – | – |
| > 10 | – | – | CN1CCN(c2cc3c(cc2Nc2nnc(-c4cccnc4)s2)nc(-c2ccc(F)cc2)n3C2CC2)CC1 | -0.36 | – | – |
| > 10 | – | – | Fc1cc2c(cc1Nc1nnc(-c3cccc(C(F)(F)F)c3)s1)nc(-c1ccc(C(F)(F)F)cc1)n2C1CC1 | 29.6 | – | – |

| IC50 [1] [µM] | IC50 [3] [µM] | IC50 [4] [µM] | Structure (SMILES) | inhibition [2] [%] | inhibition at 10 µM [5] [%] | inhibition at 10 µM [6] [%] |
| --- | --- | --- | --- | --- | --- | --- |
| – | > 10 | > 10 | Fc1ccc(-c2nc3cc(Nc4nnc(-c5cccc(C(F)(F)F)c5)s4)c(F)cc3n2C2CC2)cc1 | – | 8.11 | -3.68 |
| 5.28 | > 10 | > 10 | CN1CCN(c2cc3c(cc2Nc2nnc(-c4ccccc4)s2)nc(-c2ccc(F)cc2)n3C2CCCC2)CC1 | 77.5 | -5.02 | -26.6 |
| > 10 | – | – | CC(C)(C)c1ccc(-c2nnc(Nc3cc4nc(-c5ccc(F)cc5)n(C5CC5)c4cc3F)s2)cc1 | 36.1 | – | – |
| 3.92 | 8.55 | > 10 | CC(C)Cn1c(-c2ccc(F)cc2)nc2cc(Nc3nnc(-c4ccccc4)s3)c(N3CCN(C)CC3)cc21 | 77.4 | 62.2 | 26.7 |
| 3.51 | > 10 | > 10 | CCCCn1c(-c2ccc(F)cc2)nc2cc(Nc3nnc(-c4ccccc4)s3)c(N3CCN(C)CC3)cc21 | 80.7 | -14.4 | -9.69 |
| > 10 | – | – | Fc1ccc(-c2nc3cc(Nc4nnc(-c5ccccc5)s4)c(N4CCN(c5ccccc5)CC4)cc3n2C2CC2)cc1 | 21.3 | – | – |
| 2.23 | 3.98 | 5.66 | CN1CCN(c2cc3c(cc2Nc2nnc(-c4cccc(C(F)(F)F)c4)s2)nc(-c2ccc(F)cc2)n3C2CC2)CC1 | 100 | 94.1 | 64.6 |
| 3.52 | 6.47 | 9.37 | CN1CCN(c2cc3c(cc2Nc2nnc(-c4cccc(F)c4)s2)nc(-c2ccc(F)cc2)n3C2CC2)CC1 | 82.1 | 91.9 | 56.4 |
| > 10 | – | – | Fc1ccc(Oc2cc3c(cc2Nc2nnc(-c4cccc(C(F)(F)F)c4)s2)nc(-c2ccc(F)cc2)n3C2CC2)cc1 | 6.34 | – | – |
| 2.42 | 3.21 | 4.04 | CC(C)N1CCN(c2cc3c(cc2Nc2nnc(-c4ccccc4)s2)nc(-c2ccc(F)cc2)n3C2CC2)CC1 | 77.1 | 90.1 | 79.9 |
| 7.56 | – | – | CN1CCN(c2cc3c(cc2Nc2nnc(-c4ccccc4)s2)nc(-c2ccccc2F)n3C2CC2)CC1 | 63.3 | – | – |
| 5.79 | – | – | Fc1ccc(-c2nc3cc(Nc4nnc(-c5ccccc5)s4)ccc3n2C2CC2)cc1 | 66.1 | – | – |
| 4.84 | > 10 | > 10 | Fc1ccc(-c2nc3cc(Nc4nnc(-c5ccc(C(F)(F)F)cc5)s4)c(F)cc3n2C2CC2)cc1 | 64.1 | -2.76 | -25 |
| > 10 | – | – | CCCn1c(-c2cccc(F)c2)nc2cc(Nc3nnc(-c4ccc(C(F)(F)F)cc4)s3)c(F)cc21 | 54.6 | – | – |
| 4.51 | – | – | CN1CCN(c2cc3c(cc2Nc2nnc(-c4ccccc4)s2)nc(-c2cccc(F)c2)n3C2CC2)CC1 | 56.6 | – | – |
| 2.96 | > 10 | > 10 | CN1CCN(c2cc3c(cc2Nc2nnc(-c4ccccc4)s2)nc(-c2ccc(Cl)cc2)n3C2CC2)CC1 | 75.8 | 6.84 | -4.82 |
| 1.99 | 5.92 | 9.17 | CN1CCN(c2cc3c(cc2Nc2nnc(-c4ccccc4)s2)nc(-c2ccccc2)n3C2CC2)CC1 | 78.1 | 83.3 | 47 |
| 7.88 | > 10 | > 10 | CC(C)c1ccc(-c2nnc(Nc3cc4nc(-c5ccc(F)cc5)n(C5CC5)c4cc3F)s2)cc1 | 61.9 | 1.85 | 17.9 |
| > 10 | – | – | CCCn1c(-c2cccc(F)c2)nc2cc(Nc3nnc(-c4ccccc4C(F)(F)F)s3)c(F)cc21 | 46.2 | – | – |
| 3.29 | > 10 | > 10 | CN(C)C1CCN(c2cc3c(cc2Nc2nnc(-c4ccccc4)s2)nc(-c2ccc(F)cc2)n3C2CC2)CC1 | 69.2 | 19.5 | -2.92 |
| > 10 | – | – | CN(C)CCn1c(-c2ccc(F)cc2)nc2cc(Nc3nnc(-c4ccccc4)s3)c(N3CCN(C)CC3)cc21 | 2.11 | – | – |
| 3.28 | 3.83 | 6.73 | CCCn1c(-c2ccc(F)cc2)nc2cc(Nc3nnc(-c4ccc(C(F)(F)F)cc4)s3)c(N3CCN(C)CC3)cc21 | 90.9 | 93.8 | 64.6 |
| 6.27 | – | – | CN1CCN(c2cc3c(cc2Nc2nnc(-c4ccccc4)s2)nc(-c2ccc(F)cc2)n3C2CCC2)CC1 | 64.7 | – | – |
